Reference: patent publication US11274111B2, “Arginase inhibitors and methods of use” (Merck Sharp & Dohme Corp., priority 2018, dated 2022)
Structures can show the parent of a compound that is named as a salt.

Target: T1, Arginase (Homo sapiens, UniProt P05089)
T1 construct: Arginase protein was recombinantly expressed in Escherichia coli
T1 sequence (P05089 1-322): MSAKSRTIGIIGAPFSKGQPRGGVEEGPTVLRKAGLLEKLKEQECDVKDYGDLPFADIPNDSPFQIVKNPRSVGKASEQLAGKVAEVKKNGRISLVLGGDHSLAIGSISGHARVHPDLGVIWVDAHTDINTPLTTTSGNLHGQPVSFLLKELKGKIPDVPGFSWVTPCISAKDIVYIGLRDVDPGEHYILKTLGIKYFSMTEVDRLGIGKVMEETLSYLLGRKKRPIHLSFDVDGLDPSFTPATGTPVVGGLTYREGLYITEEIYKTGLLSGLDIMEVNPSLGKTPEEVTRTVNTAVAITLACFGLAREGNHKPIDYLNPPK
Assay: Arginase Thioornithine Generating Assay (TOGA)
Assay type: biochemical
Conditions: for inhibition at 10 µM / Percent Inhibition at Top Dose: Top Dose 10000 nM; for inhibition at 10 µM: read-out: Percent Inhibition at Top Dose; for IC50: recombinant arginase 1.88 nM, thioarginine substrate
Protocol: Arginase Thioornithine Generating Assay (TOGA)
Compounds were serially diluted in ten 3-fold steps in DMSO starting from 10 mM DMSO stocks. Compound dilutions or DMSO alone were then dispensed from the dilution plate into a Greiner black 384-well assay plate (catalog #781086) using an Echo 555 acoustic liquid handler (Labcyte).
Arginase protein was recombinantly expressed in Escherichia coli. Purified protein was then diluted in assay buffer (50 mM Tris pH 7.5, 50 mM NaCl, 1 mM manganese chloride, 0.05% bovine serum albumin to obtain a final Arginase concentration of 1.88 nM. Arginase solution (20 μL) or buffer alone (20 μL) were dispensed to wells of the assay plate using a BioRAPTR liquid dispenser (Beckman Coulter). Assay plates containing compound and arginase enzyme were incubated at room temperature for 30 minutes. Afterwards, 5 μL of 2.5 mM thioarginine (Cayman Chemicals) in assay buffer were added to each well of the assay plate using a BioRAPTR liquid dispenser. Plates were incubated at room temperature for 60 minutes and reactions were quenched by addition of 15 μL of 200 uM 7-Diethylamine-3-(4-maleimidophenyl)-4-methylcoumarin (Sigma Chemical) in 70% ethanol. Plates were briefly shaken to mix and the fluorescence was measured in an Spectramax plate reader (Molecular Devices) with a 410 nm excitation wavelength and an 490 nm emission wavelength.
Potencies were calculated by […] to the four parameter logistic IC50 equation.

Compound | inhibition at 10 µM [%] | IC50 [nM] | Percent Inhibition at Top Dose [%]
NC1(C(=O)O)c2cnccc2CC1CCCB(O)O (stereo not shown) [Example 30, 7-amino-6-(3-boronopropyl)-6,7-dihydro-5H-cyclopenta[c]pyridine-7-carboxylic acid] | 87.3 | – | –
CC1NC[C@@H]2[C@H]1CC(N)(C(=O)O)[C@H]2CCCB(O)O (stereo partly drawn) [Example 31a, (3aR,4S,6aR)-5-amino-4-(3-boronopropyl)-1-methyloctahydrocyclopenta[c]pyrrole-5-carboxylic acid] | 89.9 | – | –
C[C@@H]1NC[C@@H]2CC(N)(C(=O)O)[C@@H](CCCB(O)O)C21 (stereo partly drawn) [Example 31b, (3aR,6S,6aR)-5-amino-6-(3-boronopropyl)-1-methyloctahydrocyclopenta[c]pyrrole-5-carboxylic acid, HFBA Salt] | 70 | – | –
CN(C)C[C@]12C[C@H]1CC(CCCB(O)O)C2(N)C(=O)O (stereo partly drawn) [Example 33a, (1S,5R)-2-amino-3-(3-boronopropyl)-1-((dimethylamino)methyl)bicyclo[3.1.0]hexane-2-carboxylic acid] | 62.7 | – | –
NC1(C(=O)O)CC2(CNC2)CC1CCCB(O)O (stereo not shown) [Example 35a, 6-amino-7-(3-boronopropyl)-2-azaspiro[3.4]octane-6-carboxylic acid] | 99.7 | 237 | –
NC1(C(=O)O)c2cccnc2CC1CCCB(O)O (stereo not shown) [Example 39, 5-amino-6-(3-boronopropyl)-6,7-dihydro-5H-cyclopenta[b]pyridine-5-carboxylic acid] | 94.7 | – | –
NC1(C(=O)O)C(CCCB(O)O)CC2NCCCC21 (stereo not shown) [Example 40, 5-amino-6-(3-boronopropyl)octahydro-1H-cyclopenta[b]pyridine-5-carboxylic acid] | 91.4 | – | –
NC1(C(=O)O)CC2(CCNC2)OC1CCCB(O)O (stereo not shown) [Example 41, 3-amino-2-(3-boronopropyl)-1-oxa-7-azaspiro[4.4]nonane-3-carboxylic acid] | 97.7 | – | –
CC(C)[C@H](N)C(=O)N1C[C@@H]2C[C@@](N)(C(=O)O)[C@@H](CCCB(O)O)[C@@H]2C1 [Example 42, (3aR,4S,5S,6aR)-2-(L-valyl)-5-amino-4-(3-boronopropyl)octahydrocyclopenta[c]pyrrole-5-carboxylic acid] | 98 | 52 | –
N[C@H]1C[C@@H]2C[C@@](N)(C(=O)O)[C@@H](CCCB(O)O)[C@@H]2C1 [Example 45, (1S,2S,3aR,5S,6aR)-2,5-diamino-1-(3-boronopropyl)octahydropentalene-2-carboxylic acid] | 99.4 | – | –
C[C@H](N)C(=O)N[C@H]1C[C@@H]2C[C@@](N)(C(=O)O)[C@@H](CCCB(O)O)[C@@H]2C1 [Example 46, (1S,2S,3aR,5S,6aR)-2-amino-5-((S)-2-aminopropanamido)-1-(3-boronopropyl)octahydropentalene-2-carboxylic acid] | 96.8 | 529 | –
CC(C)[C@H](N)C(=O)N[C@H]1C[C@@H]2C[C@@](N)(C(=O)O)[C@@H](CCCB(O)O)[C@@H]2C1 [Example 47, (1S,2S,3aR,5S,6aR)-2-amino-5-((S)-2-amino-3-methylbutanamido)-1-(3-boronopropyl)octahydropentalene-2-carboxylic acid] | 94.2 | 522 | –
N[C@@]1(C(=O)O)C[C@H]2C[C@@H](NCCO)C[C@H]2[C@@H]1CCCB(O)O [Example 48, (1S,2S,3aR,5R,6aR)-2-amino-1-(3-boronopropyl)-5-((2-hydroxyethyl)amino)octahydropentalene-2-carboxylic acid] | 98.4 | – | –
N[C@@]1(C(=O)O)C[C@H]2C[C@@H](NCC(F)(F)F)C[C@H]2[C@@H]1CCCB(O)O [Example 49, (1S,2S,3aR,5R,6aR)-2-amino-1-(3-boronopropyl)-5-((2,2,2-trifluoroethyl)amino)octahydropentalene-2-carboxylic acid] | 85.9 | – | –
CN(C)[C@@H]1C[C@@H]2C[C@@](N)(C(=O)O)[C@@H](CCCB(O)O)[C@@H]2C1 [Example 50, (1S,2S,3aR,5R,6aR)-2-amino-1-(3-boronopropyl)-5-(dimethylamino)octahydropentalene-2-carboxylic acid] | 97.8 | – | –
(1S,2S,3aR,4S,5R,6aS)-2-amino-1-(3-boronopropyl)-4-fluoro-5-(methylamino)octahydropentalene-2-carboxylate [Example 55a] | – | 23.2 | 103.1
(1S,2S,3aR,4S,5S,6aS)-2-amino-1-(3-boronopropyl)-4-fluoro-5-(methylamino)octahydropentalene-2-carboxylate [Example 55b] | – | 14.3 | 101.7
(1S,2S,3aR,5R,6R,6aR)-2-amino-1-(3-boronopropyl)-6-fluoro-5-(methylamino)octahydropentalene-2-carboxylate [Example 53b] | – | 6.93 | 100

The next lines start with results.

inhibition at 10 µM [%] | IC50 [nM] | Compound | Percent Inhibition at Top Dose [%]
22.2 | – | NC1(C(=O)O)CC2CCCC2C1CCCB(O)O (stereo not shown) [Example 34a, 2-amino-1-(3-boronopropyl)octahydropentalene-2-carboxylic acid] | –
47.4 | – | N[C@]1(C(=O)O)[C@H](CCCB(O)O)C[C@H]2C[C@H]21 [Example 36b, (1R,2R,3R,5R)-2-amino-3-(3-boronopropyl)bicyclo[3.1.0]hexane-2-carboxylic acid] | –
98 | – | NC1(C(=O)O)CC2(CCCN2)CC1CCCB(O)O (stereo not drawn) [Example 37a, rel-7-amino-8-(3-boronopropyl)-1-azaspiro[4.4]nonane-7-carboxylic acid] | –
63 | – | NC1(C(=O)O)CN2CCNC[C@H]2C1CCCB(O)O (stereo partly drawn) [Example 38a, (8aR)-7-amino-8-(3-boronopropyl)octahydropyrrolo[1,2-a]pyrazine-7-carboxylic acid] | –
97.1 | 259 | N[C@@]1(C(=O)O)C[C@H]2C[C@@H](O)C[C@H]2[C@@H]1CCCB(O)O [Example 44a, (1S,2S,3aS,5R,6aR)-2-amino-1-(3-boronopropyl)-5-hydroxyoctahydropentalene-2-carboxylic acid] | –
97.4 | 178 | N[C@@]1(C(=O)O)C[C@H]2C[C@H](O)C[C@H]2[C@@H]1CCCB(O)O [Example 44b, (1S,2S,3aS,5S,6aR)-2-amino-1-(3-boronopropyl)-5-hydroxyoctahydropentalene-2-carboxylic acid] | –
99.6 | 33 | CN[C@@H]1C[C@@H]2C[C@@](N)(C(=O)O)[C@@H](CCCB(O)O)[C@@H]2C1 [Example 51a, (1S,2S,3aR,5R,6aR)-2-amino-1-(3-boronopropyl)-5-(methylamino)octahydropentalene-2-carboxylic acid] | –
101 | – | N[C@@]1(C(=O)O)C[C@H]2[C@H](F)[C@@H](O)C[C@H]2[C@@H]1CCCB(O)O [Example 54a, (1S,2S,3aR,4S,5S,6aS)-2-amino-1-(3-boronopropyl)-4-fluoro-5-hydroxyoctahydropentalene-2-carboxylate] | –
– | 42.5 | (1S,2S,3aR,4S,5R,6aS)-2-amino-1-(3-boronopropyl)-4-fluoro-5-hydroxyoctahydropentalene-2-carboxylate [Example 54b] | 100.1
– | 20.5 | (1S,2S,3aR,5S,6aR)-2-amino-1-(3-boronopropyl)-5-(methylamino)octahydropentalene-2-carboxylate [Example 51b] | 98.67
